Assay results taken from PubChem BioAssay (NCI).
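In this assay, cells in 96-well plates receive the compound at five concentrations for 48 hours. Endpoints are linearly interpolated between the surrounding concentrations. GI50 is the concentration that inhibits growth by half. At the TGI there is no net growth.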

Experiments:
Test in all cases: NCI-60 cell line screen, 48 h
SK-OV-3 ovarian = system: SK-OV-3 ovarian
HCT-15 colon = system: HCT-15 colon
UO-31 renal = system: UO-31 renal
DU-145 prostate = system: DU-145 prostate
MCF7 breast = system: MCF7 breast
HL-60(TB) leukemia = system: HL-60(TB) leukemia
HT29 colon = system: HT29 colon
MALME-3M melanoma = system: MALME-3M melanoma

| Structure (SMILES) | TGI (SK-OV-3 ovarian) [µM] | TGI (HCT-15 colon) [µM] | TGI (UO-31 renal) [µM] | TGI (DU-145 prostate) [µM] | TGI (MCF7 breast) [µM] | TGI (HL-60(TB) leukemia) [µM] | TGI (HT29 colon) [µM] | TGI (MALME-3M melanoma) [µM] | GI50 (SK-OV-3 ovarian) [µM] | GI50 (UO-31 renal) [µM] | GI50 (DU-145 prostate) [µM] | GI50 (HL-60(TB) leukemia) [µM] | GI50 (MALME-3M melanoma) [µM] | GI50 (HCT-15 colon) [µM] | GI50 (MCF7 breast) [µM] | GI50 (HT29 colon) [µM] |
| --- | --- | --- | --- | --- | --- | --- | --- | --- | --- | --- | --- | --- | --- | --- | --- | --- |
| O=c1c2c([nH]c3nccn13)CCC2 | > 10 | > 10 | > 10 | > 10 | > 10 | > 10 | > 10 | > 10 |  |  |  |  |  |  |  |  |
| C=C(C)[C@@H]1CCC=C2CC[C@]3(C)[C@H](CC[C@@H]4[C@@]5(C)CCCNC(C)(C)[C@@H]5CC[C@]43C)[C@H]21 | 27.3 |  | 2.99 | 3.57 |  | 3.57 |  | 3.74 | 12.1 | 1.53 | 1.86 | 1.58 | 1.77 |  |  |  |
| c1ccc(-c2nn3c(c2-c2ccnc4cc(OCCN5CCOCC5)ccc24)CCC3)nc1 | > 100 | > 100 | > 100 | > 100 | > 100 | > 100 | > 100 | > 100 | > 100 | 10.8 | 75.2 | > 100 | 90.3 | 31.5 | 12.9 | 30.3 |
| CO/N=C(\COc1ccc2c(=O)c3ccccc3oc2c1)c1ccccc1 | 77 | > 100 | 63 | 61.4 | > 100 | > 100 | > 100 | 48.3 | 29.7 | 24.2 | 22.4 | > 100 | 19.1 | 51.9 | 37.9 | 86.5 |
| O=[N+]([O-])/C=C/c1c(Cl)cccc1Cl | 35.5 | 5.04 | 13.3 | 20.6 | 3.29 | > 100 | 26 | 9.81 |  |  |  |  |  |  |  |  |
| OCCCCC#Cc1ccccc1C#Cc1ccc(O)cc1 | 40.2 | 28 | 26.7 | 33.6 | 49.2 | 40.5 | 22.2 | 43 | 20 | 13.2 | 16.8 | 18.3 | 20.9 | 14.1 | 17.4 | 9.41 |
| COc1ccc(-c2c(C)c(C(=O)O)nc(-c3ccc4c(O)c(OC)c5c(c4n3)=NC(C)(C)N=5)c2N)c(O)c1OC | 65.6 | > 100 | 27.5 | > 100 | > 100 | 37.1 | > 100 | 17.7 |  |  |  |  |  |  |  |  |
| O=[N+]([O-])c1cc[n+]([O-])c2ccccc12 | 5.55 | 1.42 | 0.604 | 0.173 | 2.2 | 4.29 | 1.09 | 1.12 | 1.78 | 0.191 | 0.0392 | 1.05 | 0.147 | 0.279 | 0.047 | 0.246 |
| COc1ccc(/C=C(/c2ccccc2)[N+](=O)[O-])c(OC)c1 | 9.57 | 2.13 | 2.47 | 2.92 |  | 5.25 | 10.3 | 3.3 | 3.1 | 1.23 | 1.44 | 1.15 | 1.58 | 0.576 |  | 2.88 |
| Cc1ccc(S(=O)(=O)Oc2ccc3c4c(c(=O)oc3c2)CCCCCC4)cc1 | > 100 | > 100 | > 100 | > 100 | > 100 | > 100 | > 100 | > 100 | > 100 | 27.3 | > 100 | 7.17 | > 100 | 3.16 | > 100 | 0.531 |
| COc1c(C(C)=O)c(OCCCCOc2c(C(C)=O)c(OC)c3ccoc3c2OC)c(OC)c2occc12 | > 100 | > 100 | > 100 | > 100 | > 100 | 4.02 | > 100 | 8.3 | > 100 | 2.34 | > 100 | 1.85 | 2.31 | 3.88 | 3.11 | 4.06 |
| CCC(=O)N1C/C(=C/c2ccc(Cl)cc2)C(=O)/C(=C/c2ccc(Cl)cc2)C1 | 3.76 | 1.25 | 2.5 | 2.65 | 1.36 | 5.03 | 0.622 | 4.08 | 1.83 | 1.15 | 1.13 | 1.25 | 2.06 | 0.386 | 0.324 | 0.248 |
| CCOc1ccc2c(-c3ccnc(Nc4cc(OC)cc(C(F)(F)F)c4)n3)cnn2n1 | > 25 | > 25 | > 25 | > 25 | > 25 | > 25 | > 25 | > 25 | > 25 | > 25 | > 18.9 | > 25 | > 25 | > 23.3 | 1.13 | 8.4 |
| Cc1cn2c(/C=C3/C(=O)Nc4c3ccc3ccccc43)c(C(F)(F)F)nc2s1 | 69.3 | > 100 | > 100 | > 100 | > 100 | 32.4 | 14.2 |  | 1.25 | 1.97 | 1.67 | 0.54 |  | 0.618 | 0.449 | 0.396 |
| Fc1ccc(-c2ncn(C3CCNCC3)c2-c2ccnc(Oc3ccc4c(c3)OCO4)n2)cc1 | > 25 | > 25 | > 25 | > 25 | > 25 | > 25 | > 25 | > 25 | 14.9 | 7.81 | > 25 | > 21.3 | 21.4 | 21.1 | 9.14 | 9.62 |
| CN(C)C(=O)Nc1nc2cc(Cl)c(Cl)cc2[nH]1 | > 56.6 | > 100 | > 100 | 24.9 | > 100 |  | > 32.5 | 87.3 | 1.09 | 5.53 | 2.02 | 0.241 | 3.22 | 0.546 | 0.367 | 0.393 |
